The record followed here is the NIST ThermoML archive (doi:10.1021/je101199g).

Numbers after ± are expanded uncertainties.

For the data set the following is noted: Crystal.
For `COC(=O)OC` [dimethyl carbonate], the Normal melting temperature turned out to be 5.01 ± 0.62 °C.
To `Cc1ncc[nH]1` [2-methylimidazole] belongs 146.23 ± 1.2 °C; to `O=C(Oc1ccccc1)Oc1ccccc1` [diphenyl carbonate], 80.81 ± 1.2 °C.
In the case of `CCCCCCCCCCCCO` [dodecan-1-ol], the Normal melting temperature worked out at 23.36 ± 0.62 °C.
